Measurements taken from publication PMC9224512, “New Insights into the Determinants of Specificity in Human Type I Arginase: Generation of a Mutant That Is Only Active with Agmatine as Substrate” (International Journal of Molecular Sciences, 2022).
Substitutions are numbered along the chain they refer to. Several values for one entry are separate records, joined by “and”; a condition that tells them apart may be missing. Identical values can stand only once.

Legend:
Format in all cases: biochemical
[1] = target: T1, WT-arginase (human arginase type I) (Homo sapiens, UniProt P05089); assay: Kinetic and inhibition studies, wild-type human arginase type I
T1 construct: made in house; host or cells: E. coli JM109
T1 sequence (P05089 1-322): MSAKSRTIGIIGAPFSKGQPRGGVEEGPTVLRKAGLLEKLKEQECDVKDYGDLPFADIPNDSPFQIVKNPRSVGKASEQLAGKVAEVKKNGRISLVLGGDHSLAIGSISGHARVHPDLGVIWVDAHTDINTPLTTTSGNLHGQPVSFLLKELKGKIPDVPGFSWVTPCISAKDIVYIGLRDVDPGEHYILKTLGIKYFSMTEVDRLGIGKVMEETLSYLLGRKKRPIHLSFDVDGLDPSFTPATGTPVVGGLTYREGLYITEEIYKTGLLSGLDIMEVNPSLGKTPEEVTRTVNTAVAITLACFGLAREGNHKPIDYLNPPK
Protocol: (§1) Bacterial cultures were grown with shaking at 37 °C in Luria Broth media, in the presence of ampicillin (100 μg/mL). The wild-type and mutant human liver arginase cDNAs were directionally cloned into the pBluescript II KS(+) expression vector and then expressed in E. coli JM109, following induction with 1 mM isopropyl β-D-thiogalactopyranoside. The bacterial cells were disrupted by sonication on ice (5 × 30 s pulses), centrifuged for 20 min at 12,000× g, and the obtained supernatant was precipitated with ammonium sulfate (60% saturation). The pellet, collected by centrifugation at 12,000× g for 10 min, was re-suspended in buffer 5 mM Tris–HCl (pH 7.5) containing 2 mM MnCl2 and dialyzed for 6 h at 4 °C against the same buffer. After incubation with 5 mM MnCl2 for 10 min at 60 °C, the enzyme variants were purified as previously described. The purity of the enzymes was evaluated by SDS–PAGE stained by Coomassie blue and immunodetection using an anti- rat arginase I antibody.
(§2) All assays were initiated by adding the enzyme to a previously equilibrated buffer with the substrate in solution (the concentrations of used substrates were between 0.2–3 fold the Km). Urea was determined by a colorimetric method with α-isonitrosopropiophenone. The protein concentrations were determined by the Bradford’s method, with bovine serum albumin as standard. Initial velocity and enzymatic inhibition experiments were performed in duplicate and repeated three times. The inhibitory patterns were initially determined by double reciprocal plots and re-plots of intercepts and slopes versus inhibitor concentrations. […] Velocities are expressed as μmol of urea/10 min.

[2] = target: T2, human arginase type I N130D (Homo sapiens, UniProt P05089, N130D); assay: Kinetic and inhibition studies, N130D mutant
T2 sequence (P05089 1-322 N130D): T1 sequence (P05089 1-322) with N130D
Protocol: as §1
(§3) The single, double, triple, and chimera variants of human arginase type I were obtained by PCR, using the QuickChange site-directed mutagenesis kit (Stratagene, La Jolla, CA, USA); the plasmid pBluescript II KS(+) containing the human liver arginase cDNA was used as template. To obtain the chimeric species of human arginase type I, serial mutations were made in each loop to be modified, using as template DNA the wild-type arginase gene or the previous done mutation, subcloned in the plasmid pBluescript II KS (+). Specifically, the residues present in the arginase structure were replaced by those corresponding to the agmatinase sequence of E. coli.
as §2

[3] = target: T3, human arginase type I N130D-N139D (Homo sapiens, UniProt P05089, N130D/N139D); assay: Kinetic and inhibition studies, N130D-N139D mutant
T3 sequence (P05089 1-322 N130D/N139D): T1 sequence (P05089 1-322) with N130D, N139D
Protocol: as §1, §3
All assays were initiated by adding the enzyme to a previously equilibrated buffer with the substrate in solution (the concentrations of used substrates were between 0.2–3 fold the Km). Urea was determined by a colorimetric method with α-isonitrosopropiophenone. The protein concentrations were determined by the Bradford’s method, with bovine serum albumin as standard. […]

[4] = target: T4, Chimera A1 (I129T/N130Y/T131A) of human arginase type I (Homo sapiens, UniProt P05089, I129T/N130Y/T131A); assay: Kinetic and inhibition studies, Chimera A1
T4 sequence (P05089 1-322 I129T/N130Y/T131A): T1 sequence (P05089 1-322) with I129T, N130Y, T131A
Protocol: as §1, §3, §2

[5] = target: T5, type I human arginase D181T (Homo sapiens, UniProt P05089, D181T); assay: Kinetic and inhibition studies, D181T mutant; details: substrate arginine
T5 sequence (P05089 1-322 D181T): T1 sequence (P05089 1-322) with D181T
Protocol: as §1, §3, §2

[6] = substrate = labelled compound, pH 9.5, 2 mM Mn2+

With `N=C(N)NCCC[C@H](N)C(=O)O` [Arginine, L-arginine] the Km [1, 6] was 1.5 mM, the kcat ([1]; substrate = labelled compound, pH 9.5, 2 mM Mn2+, n/a = no activity with the substrate) was 190 s⁻¹ and 190 ± 10 s⁻¹ and the Km [2, 6] was 13.3 mM. For the same compound, the kcat [2, 6] was 33 s⁻¹, the “catalytic activity relative to wild type” value ([2]; substrate arginine) was 17% and the “kcat/Km ratio, times less than wild-type enzyme” value ([2]; substrate arginine) was 50 times. For the same compound, the kcat ([3]; substrate = labelled compound) was 33 s⁻¹, the Km [3, 6] was 6.1 mM and the kcat ([4]; substrate = labelled compound, n/a = no activity with the substrate) was 6.2 ± 0.4 s⁻¹. For the same compound, the Km [4, 6] was 2.5 ± 0.5 mM, the “arginase activity, % of the enzymatic activity of wild-type arginase” value ([4]; substrate arginine) was 3.5% and the “decrease of catalytic constant (kcat) compared with wild-type enzyme” value ([4]; substrate arginine) was “approximately 30 times”. For the same compound, the kcat [5] was 191 ± 8 s⁻¹ and the Km ([5]; pH 9.5, 2 mM Mn2+) was 5.3 ± 0.8 mM.
With `NCCC[C@H](N)C(=O)O` [Ornithine, L-ornithine] the “Inhibition type” value ([1]; substrate arginine) was “Competitive”, the “Kis (Ki)” value ([1]; substrate arginine, pH 9.5) was 2 ± 0.5 mM and the Ki ([2]; read-out: Ki^orn) was 7.8 mM. For the same compound, the Ki ([3]; read-out: Ki^orn) was 6.4 mM, the “Inhibition type” value ([4]; substrate arginine) was “Competitive” and the “Kis (Ki)” value ([4]; substrate arginine) was 60 ± 2 mM. The Inhibition type [5] was “Competitive” and the Kis [5] was 1.6 ± 0.3 mM.
